# Measured values reported in US4960790A, “Derivatives of taxol, pharmaceutical compositions thereof and methods for the preparation thereof” (University of Kansas, priority 1989, dated 1990).
# Structures can show the parent of a compound that is named as a salt.
# Columns and labels:
# [1] = test system: microtubules; conditions: in vitro / cells, in words; cited from earlier work
# [2] = Solubility; format: physicochemical
# [3] = Chemical stability in buffer or water; format: physicochemical
# Description: The compound was subjected to stability studies according to the following procedures.
# (§1) Stabilities of derivatives at various pHs were studied at 25° and 37°. The plasma studies were conducted at 37° in rat and human plasma. Human plasma was obtained from Watkins Hospital and rat plasma was obtained from the Animal Care Unit of the University of Kansas. The derivative concentration used was around 20-25 μg/ml. A stock solution of the compound was prepared at 0.8-1.0 mg/mL and was added to plasma to give the desired concentration (20-25 μg/mL). One hundred microliter samples were removed and was quenched with 250 uL. acetonitrile and centrifuged to precipitate the plasma proteins. The degradation kinetics were studied by HPLC plotting peak area vs. time. The t90 and t50 were calculated. Both chemical and plasma studies were followed by high performance liquid chromatography using a RP-8 column (15 cm) and a precolumn (5 cm). The detector was set at 227 nm. The mobile phase consisted of 0.02M acetate (pH 5): acetonitrile 50:50 or 35:65 and the flow rate ranged from 1-1.5 mL/min or the same solvents containing 0.001M tetrabutylammoniumydrogensulphate and a flow rate of 1 mL/min.
# The identity of this peak was further confirmed by the degradation studies of the new derivatives. Thus, 2'(DMG) taxol was incubated with water at 37° and the product was concentrated and purified by preparative TLC. The product after purification was analyzed by HPLC and spectroscopic methods.
# [4] = Plasma stability, human plasma; format: in vitro ADME; conditions: Human plasma, 37° C.
# Description: as §1, with “The derivative concentration used was around 20-25 μg/ml. A stock solution of the compound was prepared at 0.8-1.0 mg/mL and was added to plasma to give the desired concentration (20-25 μg/mL).” left out
# [5] = test system: human mammary carcinoma MX-1 xenograft; experiment: Subrenal capsule human mammary carcinoma MX-1 xenograft in mice; conditions: for ANML BODY WT DIFF (test minus control) / TEST BODY WT CHG / # OF ANMLS ALIVE CALC/TOTAL / Average tumor WEIGHT CHANGE (DELTA) / Average tumor weight, FINAL: Q4D; for ANML BODY WT DIFF (test minus control) / TEST BODY WT CHG: Day 1 to 11; for # OF ANMLS ALIVE CALC/TOTAL / Average tumor WEIGHT CHANGE (DELTA) / Average tumor weight, FINAL / % T/C: Day 11; for % T/C: Q4D Days 1, 5, 9
# Text: The procedures followed are those described at pages 23-24 of NIH Publication No. 84-2635, In Vivo Cancer Model (February 1984).
# In the procedure, test groups of mice (6 mice per test group) and control groups of 12 mice per group are utilized. A tumor fragment (human mammary carcinoma MX-1 xenograft), is implanted under the membranous covering of the kidney of each mouse.
# Day 0: Anesthetize animals. Record body weight (Weigh Day 1). Implant tumor, measure and record. Randomize animals after they recover from the anesthetic. Run bacterial cultures. Determine solubilities of test agent. Record deaths daily.
# Day 1: Check cultures. Discard experiment if contaminated. Prepare test materials. Initiate test agent injections (in the nape of the neck) based on individual body weight. Treatment is Q4D on Days 1, 5, and 9. Prepare test agent fresh on each injection day and administer based on individual body weight for that day.
# Days 5 and 9: Prepare test agent fresh on each injection day and administer based on individual body weight for that day.
# Day 11: End and evaluate experiment. Record body weights (Weigh Day 2). Measure tumor in OMU's (Ocular Micrometer Unit--10 OMU's=1 mm) and record.
# The parameter measured is mean tumor weight change (delta) based on length and width measurements in millimeters. Mean animal body weights are computed for Day 1 and Day 11, compute T/C for all test groups with>65% survivors on Day 11. An excessive body weight change difference (test minus control) may also be used in evaluating toxicity. The dimensions are measured and recorded in Ocular Micrometer Units (OMU). A computer is utilized for the following:
# (1) Converts OMU's to millimeters (mm).
# (2) Calculates tumor weights (mgs) from tumor dimensions (mm×mm) following the formula for the volume of a prolate ellipsoid: [formula] (3) Calculates the change (delta) in mean tumor weight for each group of mice:
# Change in Mean Tumor Weight=Mean Tumor WeightFINAL -Mean Tumor WeightINITIAL.
# (4) Calculates the change (delta) in mean tumor weight for test (T) and control (C) groups.
# (5) Calculates T/C% for all test groups with>65% survivors on Final Evaluation Day: [formula]
# [6] = test system: microtubule assembly; experiment: In vitro microtubule assembly kinetics; format: biochemical; conditions: rank order
# Description: (A) In vitro Microtubule Assembly Kinetics Studies
# The microtubule assembly study was conducted using both 2' and 7-derivatives according to the in vitro procedures disclosed, for example, in Mellado et al., Biochemical and Biophysical Research Communications, Vol. 124, No. 2 (1984), pp. 329-336; Magri et al., J. Org. Chem., 51, 797-802 (1986); and Parness et al., Biochemical and Biophysical Research Communications, Vol. 105, No. 3, pp. 1082-1091 (1982).
# [7] = test system: B-16 melanoma cells; experiment: In vitro B16 melanoma cell proliferation; format: cell-based; conditions: rank order
# Description: These studies were conducted according to standard procedures as described in Donoso and Himes, Cancer Biochem. Biophysics, vol. 7, (1984), p. 133.
smiles,measurement,setting,value
CC[C@]1(O)C[C@H]2CN(CCc3c([nH]c4ccccc34)[C@@](C(=O)OC)(c3cc4c(cc3OC)N(C=O)[C@H]3[C@@](O)(C(=O)OC)[C@H](OC(C)=O)[C@]5(CC)C=CCN6CC[C@]43[C@@H]65)C2)C1 [vincristine],Effect on microtubules,[1],inhibit microtubule assembly and to depolymerize steady state microtubules
COc1cc2c(c(OC)c1OC)-c1ccc(OC)c(=O)cc1[C@@H](NC(C)=O)CC2 [colchicine],Effect on microtubules,[1],depolymerize microtubules in cells
"CCN(CC)CCC(=O)O[C@@H](C(=O)O[C@H]1C[C@@]2(O)[C@@H](OC(=O)c3ccccc3)[C@@H]3[C@]4(OC(C)=O)CO[C@@H]4C[C@H](O)[C@@]3(C)C(=O)[C@H](OC(C)=O)C(=C1C)C2(C)C)[C@@H](NC(=O)c1ccccc1)c1ccccc1 [Compound 3, HCl salt of 2'-(3-(N,N-diethylamino)propionyl)taxol]",solubility,[2],~ 0.8 mg/mL
same,half-life,"[3]; 0.02 M Acetate, 0.01 mg/mL, pH 3.5, 25° C.",439 h
same,half-life,"[3]; 0.02 M Phosphate, 0.02 mg/mL, pH 7.4, 25° C.",0.25 h
same,half-life,[4],4.2 min
same,ANML BODY WT DIFF (test minus control),"[5]; Table 2, 4.50 mg/kg",1.2
same,TEST BODY WT CHG,"[5]; Table 2, 4.50 mg/kg",-2.8
same,# OF ANMLS ALIVE CALC/TOTAL,"[5]; Table 2, 4.50 mg/kg",5/5
same,Average tumor WEIGHT CHANGE (DELTA),"[5]; Table 2, 4.50 mg/kg",-.78 MGS
same,"Average tumor weight, FINAL","[5]; Table 2, 4.50 mg/kg",.00 MGS
same,ANML BODY WT DIFF (test minus control),"[5]; Table 2, 9.00 mg/kg",1.3
same,TEST BODY WT CHG,"[5]; Table 2, 9.00 mg/kg",-2.7
same,# OF ANMLS ALIVE CALC/TOTAL,"[5]; Table 2, 9.00 mg/kg",5/5
same,Average tumor WEIGHT CHANGE (DELTA),"[5]; Table 2, 9.00 mg/kg",-.87 MGS
same,"Average tumor weight, FINAL","[5]; Table 2, 9.00 mg/kg",.00 MGS
same,ANML BODY WT DIFF (test minus control),"[5]; Table 2, 18.00 mg/kg",.7
same,TEST BODY WT CHG,"[5]; Table 2, 18.00 mg/kg",-3.3
same,# OF ANMLS ALIVE CALC/TOTAL,"[5]; Table 2, 18.00 mg/kg",3/4
same,Average tumor WEIGHT CHANGE (DELTA),"[5]; Table 2, 18.00 mg/kg",-.82 MGS
same,"Average tumor weight, FINAL","[5]; Table 2, 18.00 mg/kg",.00 MGS
same,% T/C,"[5]; Table 2, 36.00 mg/kg",TOX
same,# OF ANMLS ALIVE CALC/TOTAL,"[5]; Table 2, 36.00 mg/kg",0/5
CC[C@]1(O)C[C@@H]2CN(CCc3c([nH]c4ccccc34)[C@@](C(=O)OC)(c3cc4c(cc3OC)N(C)[C@H]3[C@@](O)(C(=O)OC)[C@H](OC(C)=O)[C@]5(CC)C=CCN6CC[C@]43[C@@H]65)C2)C1 [vinblastine],Effect on microtubules,[1],inhibit microtubule assembly and to depolymerize steady state microtubules
"CCN(CC)CCC(=O)O[C@@H](C(=O)O[C@H]1C[C@@]2(O)[C@@H](OC(=O)c3ccccc3)[C@@H]3[C@]4(OC(C)=O)CO[C@@H]4C[C@H](O)[C@@]3(C)C(=O)[C@H](OC(C)=O)C(=C1C)C2(C)C)[C@@H](NC(=O)c1ccccc1)c1ccccc1 [preferred compound 1, 2'(N,N-diethylaminopropionyl)taxol]",Ability to assemble microtubules (order),[6],"taxol >7-(N,N-dimethylglycyl)taxol(11)>2'(N,N-diethylaminopropionyl)taxol(8)>2'(N,N-dimethylglycyl)taxol(2)"
same,Order of effectiveness in B-16 melanoma cell proliferation study,[7],"taxol>2'-(N,N-dimethylglycyl)taxol>2'-(N,N-diethylaminopropionyl)taxol>7-(N,N-dimethylglycyl)taxol"
"CC(=O)O[C@H]1C(=O)[C@]2(C)[C@@H](OC(=O)CN(C)C)C[C@H]3OC[C@@]3(OC(C)=O)[C@H]2[C@H](OC(=O)c2ccccc2)[C@]2(O)C[C@H](OC(=O)[C@H](O)[C@@H](NC(=O)c3ccccc3)c3ccccc3)C(C)=C1C2(C)C [Compound 7, 7-(N,N-Dimethylglycyl)Taxol]",Ability to assemble microtubules (order),[6],"taxol >7-(N,N-dimethylglycyl)taxol(11)>2'(N,N-diethylaminopropionyl)taxol(8)>2'(N,N-dimethylglycyl)taxol(2)"
same,Order of effectiveness in B-16 melanoma cell proliferation study,[7],"taxol>2'-(N,N-dimethylglycyl)taxol>2'-(N,N-diethylaminopropionyl)taxol>7-(N,N-dimethylglycyl)taxol"
same,% T/C,"[5]; Table 2, 4.13 mg/kg",34%
same,ANML BODY WT DIFF (test minus control),"[5]; Table 2, 4.13 mg/kg",-.5
same,TEST BODY WT CHG,"[5]; Table 2, 4.13 mg/kg",-4.5
same,# OF ANMLS ALIVE CALC/TOTAL,"[5]; Table 2, 4.13 mg/kg",4/5
same,Average tumor WEIGHT CHANGE (DELTA),"[5]; Table 2, 4.13 mg/kg",4.92 MGS
same,"Average tumor weight, FINAL","[5]; Table 2, 4.13 mg/kg",5.66 MGS
same,% T/C,"[5]; Table 2, 8.25 mg/kg",23%
same,ANML BODY WT DIFF (test minus control),"[5]; Table 2, 8.25 mg/kg",.1
same,TEST BODY WT CHG,"[5]; Table 2, 8.25 mg/kg",-3.9
same,# OF ANMLS ALIVE CALC/TOTAL,"[5]; Table 2, 8.25 mg/kg",4/4
same,Average tumor WEIGHT CHANGE (DELTA),"[5]; Table 2, 8.25 mg/kg",3.38 MGS
same,"Average tumor weight, FINAL","[5]; Table 2, 8.25 mg/kg",4.19 MGS
same,% T/C,"[5]; Table 2, 16.50 mg/kg",-93%
same,ANML BODY WT DIFF (test minus control),"[5]; Table 2, 16.50 mg/kg",-1.7
same,TEST BODY WT CHG,"[5]; Table 2, 16.50 mg/kg",-5.7
same,# OF ANMLS ALIVE CALC/TOTAL,"[5]; Table 2, 16.50 mg/kg",3/4
same,Average tumor WEIGHT CHANGE (DELTA),"[5]; Table 2, 16.50 mg/kg",-.55 MGS
same,"Average tumor weight, FINAL","[5]; Table 2, 16.50 mg/kg",.04 MGS
same,ANML BODY WT DIFF (test minus control),"[5]; Table 2, 33.00 mg/kg",1.3
same,TEST BODY WT CHG,"[5]; Table 2, 33.00 mg/kg",-2.7
same,# OF ANMLS ALIVE CALC/TOTAL,"[5]; Table 2, 33.00 mg/kg",4/5
same,Average tumor WEIGHT CHANGE (DELTA),"[5]; Table 2, 33.00 mg/kg",-.74 MGS
same,"Average tumor weight, FINAL","[5]; Table 2, 33.00 mg/kg",.00 MGS
